# Experimental data taken from patent US6875865B1, “Selected derivatives of K-252a” (Cephalon, Inc., priority 1996, dated 2005).
# Tested on: basal forebrain cultures
# Assay: Basal Forebrain ChAT Activity Assay
# Format: cell-based, rat
# Settings: day six, concentration not given, tested between 10 nM and 500 nM, at least 120% of control = active
# Protocol: Compounds of the invention were assessed for their ability to promote survival and increase in ChAT activity in basal forebrain cultures. ChAT activity in these cultures is a biochemical marker for the cholinergic neurons (less than 5% of the cells in culture), which represent the major cholinergic input to the hippocampal formation, olfactory nucleus, interpeduncular nucleus, cortex, amygdala, and parts of the thalamus. […] The basal forebrain was dissected from embryonic day 17 or 18 rat embryos and the cells were […] with Dispase™ (neutral protease, Collaborative Research). Neurons were plated at 5×10^4 cells/well (1.5×10^5 cells/cm^2) in wells of 96-well plates previously coated with […] and laminin. Cells were cultured in serum-free N2 medium containing 0.05% bovine serum albumin (BSA) (Bottenetein et al., supra) at 37° in a humidified atmosphere of 5% CO2/95% air. ChAT activity was measured in vitro at day six, using a modification of the Formum procedure (supra) according to McManaman et al. (supra) and Glicksman et al. (J. Neurochem. 61:210-221, 1993).
# (§1) Compounds which increased ChAT activity at least 120% of the control activity are considered active.
row,SMILES,ChAT Activity maximum efficacy % of Control (conc)
1,COC(=O)C1(O)CC2OC1(C)n1c3ccc(C(=O)CSc4ncccn4)cc3c3c4c(c5c6cc(C(=O)CSc7ncccn7)ccc6n2c5c31)C(=O)NC4 (centres unmarked) [Compound 49],<120 % of Control
2,COC(=O)C1(O)CC2OC1(C)n1c3ccc(CCI)cc3c3c4c(c5c6cc(CCI)ccc6n2c5c31)C(=O)NC4 (centres unmarked) [Compound 70a],<120 % of Control
3,COC(=O)C1(O)CC2OC1(C)n1c3ccc(CCN4CCCCC4)cc3c3c4c(c5c6cc(CCN7CCCCC7)ccc6n2c5c31)C(=O)NC4 (centres unmarked) [Compound 75],<120 % of Control
4,COC(=O)C1(O)CC2OC1(C)n1c3ccc(CCN4CCOCC4)cc3c3c4c(c5c6cc(CCN7CCOCC7)ccc6n2c5c31)C(=O)NC4 (centres unmarked) [Compound 76],<120 % of Control
5,COC(=O)C1(O)CC2OC1(C)n1c3ccc(CCN(C)CCO)cc3c3c4c(c5c6cc(CCN(C)CCO)ccc6n2c5c31)C(=O)NC4 (centres unmarked) [Compound 78],<120 % of Control
6,CNCCc1ccc2c(c1)c1c3c(c4c5cc(CCNC)ccc5n5c4c1n2C1CC(O)(C(=O)OC)C5(C)O1)CNC3=O (centres unmarked) [Compound 79],<120 % of Control
7,COC(=O)C1(O)CC2OC1(C)n1c3ccc(CCNCc4ccc(OC)cc4)cc3c3c4c(c5c6cc(CCNCc7ccc(OC)cc7)ccc6n2c5c31)C(=O)NC4 (centres unmarked) [Compound 80],<120 % of Control
8,COC(=O)C1(O)CC2OC1(C)n1c3ccc(CCCN4CCOCC4)cc3c3c4c(c5c6cc(CCCN7CCOCC7)ccc6n2c5c31)C(=O)NC4 (centres unmarked) [Compound 83],<120 % of Control
9,CCN(CC)CCCc1ccc2c(c1)c1c3c(c4c5cc(CCCN(CC)CC)ccc5n5c4c1n2C1CC(O)(C(=O)OC)C5(C)O1)CNC3=O (centres unmarked) [Compound 84],<120 % of Control
10,COC(=O)CSCCc1ccc2c(c1)c1c3c(c4c5cc(CCSCC(=O)OC)ccc5n5c4c1n2C1CC(O)(C(=O)OC)C5(C)O1)CNC3=O (centres unmarked) [Compound 89],<120 % of Control
11,CCOC(=O)CCSCCc1ccc2c(c1)c1c3c(c4c5cc(CCSCCC(=O)OCC)ccc5n5c4c1n2C1CC(O)(C(=O)OC)C5(C)O1)CNC3=O (centres unmarked) [Compound 90],<120 % of Control
12,COC(=O)C1(O)CC2OC1(C)n1c3ccc(CCSc4ccncc4)cc3c3c4c(c5c6cc(CCSc7ccncc7)ccc6n2c5c31)C(=O)NC4 (centres unmarked) [Compound 93],<120 % of Control
13,COC(=O)C1(O)CC2OC1(C)n1c3ccc(CCCSc4nc5ccccc5s4)cc3c3c4c(c5c6cc(CCCSc7nc8ccccc8s7)ccc6n2c5c31)C(=O)NC4 (centres unmarked) [Compound 96],<120 % of Control
14,COC(=O)C1(O)CC2OC1(C)n1c3ccc(COCCN(C)C)cc3c3c4c(c5c6cc(C=Cc7ccccn7)ccc6n2c5c31)C(=O)NC4 (centres unmarked) [Compound 104],<120 % of Control

# Same assay, conditions: day six, maximum efficacy at 50 nM
row,SMILES,ChAT Activity maximum efficacy % of Control (conc)
1,COC(=O)C1(O)CC2OC1(C)n1c3ccccc3c3c4c(c5c6cc(C#CCN(C)C)ccc6n2c5c31)C(=O)NC4 (centres unmarked) [Compound 61],166 (50 nM) % of Control
2,COCc1ccc2c(c1)c1c3c(c4c5cc(C=Cc6ccccn6)ccc5n5c4c1n2C1(C)OC5CC1(O)C(=O)OC)C(=O)NC3 (centres unmarked) [Compound 102],176 (50 nM) % of Control
3,CCOCc1ccc2c(c1)c1c3c(c4c5cc(C=Cc6ccccn6)ccc5n5c4c1n2C1(C)OC5CC1(O)C(=O)OC)C(=O)NC3 (centres unmarked) [Compound 103],154 (50 nM) % of Control
4,CCSCc1ccc2c(c1)c1c3c(c4c5cc(C=Cc6ccccn6)ccc5n5c4c1n2C1(C)OC5CC1(O)C(=O)OC)C(=O)NC3 (centres unmarked) [Compound 105],136 (50 nM) % of Control

# Same assay, conditions: day six, maximum efficacy at 250 nM
row,SMILES,ChAT Activity maximum efficacy % of Control (conc)
1,COC(=O)C1(O)CC2OC1(C)n1c3ccc(C(=O)CSc4ccncc4)cc3c3c4c(c5c6ccccc6n2c5c31)C(=O)NC4 (centres unmarked) [Compound 42b],164 (250 nM) % of Control
2,COC(=O)C1(O)CC2OC1(C)n1c3ccc(C=CCN(C)C)cc3c3c4c(c5c6cc(C=CCN(C)C)ccc6n2c5c31)C(=O)NC4 (centres unmarked) [Compound 64],165 (250 nM) % of Control
3,COC(=O)C1(O)CC2OC1(C)n1c3ccc(CCCOC=O)cc3c3c4c(c5c6cc(CCCOC=O)ccc6n2c5c31)C(=O)NC4 (centres unmarked) [Compound 73b],171 (250 nM) % of Control
4,COC(=O)C1(O)CC2OC1(C)n1c3ccc(CCCO)cc3c3c4c(c5c6cc(CCCO)ccc6n2c5c31)C(=O)NC4 (centres unmarked) [Compound 73c],190 (250 nM) % of Control
5,CCN(CC)CCc1ccc2c(c1)c1c3c(c4c5cc(CCN(CC)CC)ccc5n5c4c1n2C1CC(O)(C(=O)OC)C5(C)O1)CNC3=O (centres unmarked) [Compound 77],132 (250 nM) % of Control
6,COC(=O)C1(O)CC2OC1(C)n1c3ccc(CCCN4CCCCC4)cc3c3c4c(c5c6cc(CCCN7CCCCC7)ccc6n2c5c31)C(=O)NC4 (centres unmarked) [Compound 82],150 (250 nM) % of Control
7,COC(=O)C1(O)CC2OC1(C)n1c3ccc(CSCCN(C)C)cc3c3c4c(c5c6cc(C=Cc7ccccn7)ccc6n2c5c31)C(=O)NC4 (centres unmarked) [Compound 106],135 (250 nM) % of Control

# Tested on: dissociated spinal cord cultures
# Assay: Spinal Cord ChAT Activity Assay
# Format: cell-based, rat
# Settings: concentration not given, at least 120% of control = active
# Protocol: The effect of selected ring substituted K-252a derivatives on CHAT activity was assayed in dissociated spinal cord cultures prepared from fetal rats using the procedure described in U.S. Pat. No. 5,461,146, Columns 26 and 27, Examples 6 and 7. ChAT is the enzyme that catalyzes the synthesis of the neurotransmitter acetylcholine, and it is a specific biochemical marker for cholinergic neurons. In the spinal cord, the large majority of cholinergic neurons are motor neurons. Assay of this enzyme may thus be used as an indication of the effects of a factor, or actors, on the survival of cholinergic neurons and/or regulation of this enzyme.
# as §1
row,SMILES,ChAT Activity maximum efficacy % of Control (conc)
1,COC(=O)CCc1ccc2c(c1)c1c3c(c4c5cc(CCC(=O)OC)ccc5n5c4c1n2C1CC(O)(C(=O)OC)C5(C)O1)CNC3=O (centres unmarked) [Compound 139],<120 % of Control

# Same assay, conditions: maximum efficacy at 30 nM
row,SMILES,ChAT Activity maximum efficacy % of Control (conc)
1,COC(=O)C=Cc1ccc2c(c1)c1c3c(c4c5cc(C=CC(=O)OC)ccc5n5c4c1n2C1CC(O)(C(=O)OC)C5(C)O1)CNC3=O (centres unmarked) [Compound 1],153 (30 nM) % of Control
2,COCc1ccc2c(c1)c1c3c(c4c5cc(C=Cc6ccccn6)ccc5n5c4c1n2C1CC(O)(C(=O)OC)C5(C)O1)CNC3=O (centres unmarked) [Compound 116],231 (30 nM) % of Control
3,CCOCc1ccc2c(c1)c1c3c(c4c5cc(C=Cc6ccccn6)ccc5n5c4c1n2C1CC(O)(C(=O)OC)C5(C)O1)CNC3=O (centres unmarked) [Compound 117],232 (30 nM) % of Control
4,CCSCc1ccc2c(c1)c1c3c(c4c5cc(C=Cc6ccccn6)ccc5n5c4c1n2C1CC(O)(C(=O)OC)C5(C)O1)CNC3=O (centres unmarked) [Compound 118],249 (30 nM) % of Control
5,COC(=O)C1(O)CC2OC1(C)n1c3ccc(C=Cc4ccccn4)cc3c3c4c(c5c6cc(CSc7ccccn7)ccc6n2c5c31)C(=O)NC4 (centres unmarked) [Compound 119],272 (30 nM) % of Control

# Same assay, conditions: maximum efficacy at 300 nM
row,SMILES,ChAT Activity maximum efficacy % of Control (conc)
1,COC(=O)C1(O)CC2OC1(C)n1c3ccc(CCOC=O)cc3c3c4c(c5c6cc(CCOC=O)ccc6n2c5c31)C(=O)NC4 (centres unmarked) [Compound 70b],169 (300 nM) % of Control
2,COC(=O)C1(O)CC2OC1(C)n1c3ccc(C=Cc4ccccn4)cc3c3c4c(c5c6cc(CSc7nc8ccccc8[nH]7)ccc6n2c5c31)C(=O)NC4 (centres unmarked) [Compound 120],257 (300 nM) % of Control
3,CCC=Cc1ccc2c(c1)c1c3c(c4c5cc(C=Cc6ccccn6)ccc5n5c4c1n2C1CC(O)(C(=O)OC)C5(C)O1)CNC3=O (centres unmarked) [Compound 122],279 (300 nM) % of Control
4,CCOC(=O)CCc1ccc2c(c1)c1c3c(c4c5cc(CCC(=O)OCC)ccc5n5c4c1n2C1CC(O)(C(=O)OC)C5(C)O1)CNC3=O (centres unmarked) [Compound 140],156 (300 nM) % of Control
